Measured values reported in US20090162305A1, “FORMULATIONS OF LOW OIL CONTENT COMPRISING […] DERIVATIVES” (SYMRISE GmbH & Co. KG, priority 2006, published 2009).

Experiment: ABTS assay, cell-free in vitro test of antioxidative capacity
Type: biochemical
From the text: ABTS assay is a cell-free in vitro test for evaluation of antioxidative capacity (literature: Re R, Pellegrini N, Proteggente A, Pannala A, Yang M, Rice-Evans C. 1999. “Antioxidant activity applying an improved ABTS radical cation decolorization assay”; Free Radic. Biol. Med. 26: 1231-7). The assay uses the intrinsic colouration of a solution prepared with the cationic radical 2,2′-azinobis(3-ethylbenzothiazoline-6-sulfonic acid) (ABTS+) and potassium persulfate, which is decolourized by addition of antioxidants (reduction of the cationic radical). This decolouration can be measured photometrically at 734 nm. The test is carried out in 96-well microtitre plates. […] All the ABTS test results result from two independent experiments and are presented as means with the associated deviation from the mean.
In order to test whether the antioxidative activity of styrylresorcinol (formula 3; CARN 85-27-8; 4-(1-phenylethyl)-1,3-dihydroxybenzene) is adversely influenced by the presence of significant amounts of oily phase, in a further experiment the antioxidative capacity of two products comprising 30 percent by weight of 2-ethylhexyl isononanoate (INCI Ethylhexyl Isononanoate; product A) and, respectively, 5 percent by weight of 2-ethylhexyl isononanoate (INCI Ethylhexyl Isononanoate; product B) was determined with the aid of ABTS assay.

## CC(c1ccccc1)c1ccc(O)cc1O (stereo not drawn) [Styrylresorcinol, 4-(1-phenylethyl)-1,3-dihydroxybenzene]
5% of oily phase
  reduction in the antioxidative capacity compared with the oil-free reference sample: 1.6%
30% of oily phase, 0.01% styrylresorcinol
  deterioration in the antioxidative capacity compared with the oil-free reference sample: 13.5%
ABTS, versus alpha-tocopherol
  antioxidative capacity greater than that of the reference substance alpha-tocopherol, factor: ~2
Ethanolic solution containing 0.01% styrylresorcinol with 30% of oily phase (product A)
  antioxidative capacity: 79.4%
Mixture according to the invention comprising only 5% of oily phase (product B)
  antioxidative capacity: 91.35
oil-free reference sample containing only 0.01% styrylresorcinol (product C)
  antioxidative capacity: 92.9%
